Source: the CheMixHub viscosity set

Assay: xn = mol fraction of the nth substance listed

CC1COC(=O)O1 (centres undefined) + C1CCOC1
viscosity [mPa·s]
Conditions	298.15 K	308.15 K	318.15 K
101 kPa, x2 = 0.2	1.7	–	–
101 kPa, x2 = 0.6	0.862	–	–
101.33 kPa, x2 = 0.0524	2.227	1.858	1.589
101.33 kPa, x2 = 0.1036	2.023	1.709	1.459
101.33 kPa, x2 = 0.1429	1.87	1.598	1.373
101.33 kPa, x2 = 0.2064	1.674	1.432	1.239
101.33 kPa, x2 = 0.2431	1.567	1.351	1.167
101.33 kPa, x2 = 0.3083	1.393	1.208	1.057
101.33 kPa, x2 = 0.3478	1.303	1.133	0.992
101.33 kPa, x2 = 0.4095	1.171	1.025	–
101.33 kPa, x2 = 0.5098	–	0.8753	0.7782
101.33 kPa, x2 = 0.5621	–	0.8044	0.7222
101.33 kPa, x2 = 0.6094	0.8417	0.7503	0.6719
101.33 kPa, x2 = 0.6479	0.7836	0.7016	0.6343
101.33 kPa, x2 = 0.7082	0.7171	0.6445	0.5827
101.33 kPa, x2 = 0.7635	0.6549	0.596	–
101.33 kPa, x2 = 0.8062	0.6195	–	0.5098
101.33 kPa, x2 = 0.8388	0.5831	0.5361	0.4805
101.33 kPa, x2 = 0.9035	0.5357	0.4872	0.4425
101.33 kPa, x2 = 0.9631	0.485	0.4449	0.404

Cc1ccccc1 + CCCCO
viscosity [mPa·s]
Conditions	298.15 K	303.15 K	308.15 K	313.15 K	318.15 K
101 kPa, x1 = 0.092	2.01	1.769	1.581	1.393	1.292
101 kPa, x1 = 0.1987	1.59	1.459	1.323	1.199	1.106
101 kPa, x1 = 0.2983	1.279	1.181	1.076	0.9827	0.9514
101 kPa, x1 = 0.393	1.084	1.004	0.9192	0.8418	0.8198
101 kPa, x1 = 0.5091	0.8978	0.8372	0.7739	0.714	0.7048
101 kPa, x2 = 0.12	0.56	–	–	–	–
101 kPa, x2 = 0.24	0.635	–	–	–	–
101 kPa, x2 = 0.35	0.715	–	–	–	–
101 kPa, x2 = 0.45	0.84	–	–	–	–
101 kPa, x2 = 0.55	0.997	–	–	–	–
101 kPa, x2 = 0.65	1.199	–	–	–	–
101 kPa, x2 = 0.74	1.441	–	–	–	–
101 kPa, x2 = 0.83	1.73	–	–	–	–
101 kPa, x2 = 0.92	2.12	–	–	–	–
101.33 kPa, x1 = 0.0859	–	1.86	1.656	1.489	–
101.33 kPa, x1 = 0.2006	–	1.452	1.311	1.193	–
101.33 kPa, x1 = 0.2972	–	1.175	1.065	0.979	–
101.33 kPa, x1 = 0.3877	–	0.999	0.911	0.84	–
101.33 kPa, x1 = 0.5025	–	0.833	0.77	0.713	–
101.33 kPa, x1 = 0.6013	–	0.726	0.675	0.629	–
101.33 kPa, x1 = 0.7617	–	0.59	0.557	0.524	–
101.33 kPa, x1 = 0.8121	–	0.571	0.534	0.507	–
101.33 kPa, x1 = 0.947	–	0.526	0.498	0.478	–

COc1ccccc1 + CCCCCCCCCCCCCCCC
viscosity [mPa·s], 101.3 kPa
Conditions	x1 = 0.1745	x1 = 0.2566	x1 = 0.3849	x1 = 0.4725	x1 = 0.5679	x1 = 0.6889	x1 = 0.8311	x1 = 0.944
293.15 K	2.794	2.566	2.193	1.975	1.773	1.51	1.279	1.131
303.15 K	2.261	2.079	1.806	1.64	1.478	1.286	1.084	0.97
313.15 K	1.866	1.73	1.518	1.387	1.258	1.092	0.942	0.845
323.15 K	1.571	1.436	1.296	1.192	1.088	0.964	0.836	0.747

CC(C)CC(=O)O + O
viscosity [mPa·s], 101.33 kPa
Conditions	293.15 K	313.15 K
x1 = 0.0036	1.106	0.724
x1 = 0.0073	1.161	0.742

CCCCn1cc[n+](C)c1.O=S(=O)([O-])C(F)(F)F + O
101 kPa
Conditions	viscosity [mPa·s]
308.15 K, x2 = 0.3999	19.95
323.15 K, x2 = 0.901	3.005

CC(C)=O + C1CCCCC1
viscosity [mPa·s], 101.33 kPa
Conditions	293.15 K	298.15 K	303.15 K	307.35 K
x1 = 0.091	–	–	–	0.662
x1 = 0.3116	–	–	–	0.512
x1 = 0.3949	–	–	–	0.461
x1 = 0.4589	–	–	–	0.431
x1 = 0.5299	–	–	–	0.402
x1 = 0.7897	–	–	–	0.323
x2 = 0.049	0.329	0.313	0.299	–
x2 = 0.0917	0.336	0.32	0.305	–
x2 = 0.1959	0.361	0.343	0.326	–
x2 = 0.2889	0.392	0.371	0.352	–
x2 = 0.4092	0.443	0.417	0.394	–
x2 = 0.5009	0.486	0.456	0.429	–
x2 = 0.5984	0.544	0.509	0.477	–
x2 = 0.7007	0.621	0.578	0.54	–
x2 = 0.8046	0.7	0.65	0.606	–
x2 = 0.9051	0.818	0.756	0.701	–
x2 = 0.958	0.895	0.829	0.762	–

COc1ccccc1 + CO
Conditions	viscosity [mPa·s]
298.15 K, 101 kPa, x1 = 0.0501	0.586
298.15 K, 101 kPa, x1 = 0.1098	0.623
298.15 K, 101 kPa, x1 = 0.1821	0.662
298.15 K, 101 kPa, x1 = 0.2706	0.707
298.15 K, 101 kPa, x1 = 0.3822	0.756
298.15 K, 101 kPa, x1 = 0.5271	0.809
298.15 K, 101 kPa, x1 = 0.7214	0.886
298.15 K, 101.33 kPa, x1 = 0.1024	0.6111
298.15 K, 101.33 kPa, x1 = 0.2039	0.67
298.15 K, 101.33 kPa, x1 = 0.2982	0.7131
298.15 K, 101.33 kPa, x1 = 0.4027	0.7591
298.15 K, 101.33 kPa, x1 = 0.4998	0.8009
298.15 K, 101.33 kPa, x1 = 0.5991	0.8271
298.15 K, 101.33 kPa, x1 = 0.7068	0.8651
298.15 K, 101.33 kPa, x1 = 0.8061	0.8975
298.15 K, 101.33 kPa, x1 = 0.9023	0.9373
303 K, 101.3 kPa, x1 = 0.0499	0.5675
303 K, 101.3 kPa, x1 = 0.1091	0.6038
303 K, 101.3 kPa, x1 = 0.2686	0.6883
303 K, 101.3 kPa, x1 = 0.5242	0.7935
303 K, 101.3 kPa, x1 = 0.7199	0.8751
303.15 K, 101.33 kPa, x1 = 0.1024	0.574
303.15 K, 101.33 kPa, x1 = 0.2039	0.6257
303.15 K, 101.33 kPa, x1 = 0.2982	0.6672
303.15 K, 101.33 kPa, x1 = 0.4027	0.7035
303.15 K, 101.33 kPa, x1 = 0.4998	0.7455
303.15 K, 101.33 kPa, x1 = 0.5991	0.7718
303.15 K, 101.33 kPa, x1 = 0.7068	0.8059
303.15 K, 101.33 kPa, x1 = 0.8061	0.8374
303.15 K, 101.33 kPa, x1 = 0.9023	0.8779
308.15 K, 101.33 kPa, x1 = 0.1024	0.5506
308.15 K, 101.33 kPa, x1 = 0.2039	0.5983
308.15 K, 101.33 kPa, x1 = 0.2982	0.638
308.15 K, 101.33 kPa, x1 = 0.4027	0.6731
308.15 K, 101.33 kPa, x1 = 0.4998	0.7065
308.15 K, 101.33 kPa, x1 = 0.5991	0.735
308.15 K, 101.33 kPa, x1 = 0.7068	0.7683
308.15 K, 101.33 kPa, x1 = 0.8061	0.7978
308.15 K, 101.33 kPa, x1 = 0.9023	0.8373
313.15 K, 101.33 kPa, x1 = 0.1024	0.4934
313.15 K, 101.33 kPa, x1 = 0.2039	0.5372
313.15 K, 101.33 kPa, x1 = 0.2982	0.5706
313.15 K, 101.33 kPa, x1 = 0.4027	0.6023
313.15 K, 101.33 kPa, x1 = 0.4998	0.6345
313.15 K, 101.33 kPa, x1 = 0.5991	0.6601
313.15 K, 101.33 kPa, x1 = 0.7068	0.6865
313.15 K, 101.33 kPa, x1 = 0.8061	0.7174
313.15 K, 101.33 kPa, x1 = 0.9023	0.751

COc1ccccc1 + CCOC(=O)OCC
viscosity [mPa·s], 100 kPa
Conditions	x2 = 0.1064	x2 = 0.203	x2 = 0.3032	x2 = 0.3994	x2 = 0.499	x2 = 0.6007	x2 = 0.7032	x2 = 0.7988	x2 = 0.8975
303.15 K	0.894	0.867	0.84	0.817	0.793	0.771	0.75	0.731	0.714
308.15 K	0.824	0.801	0.778	0.759	0.738	0.719	0.702	0.687	0.673
313.15 K	0.767	0.748	0.729	0.711	0.694	0.677	0.662	0.649	0.636
